Measurements reported in patent US20040009195A1, “Modified sialic acid vaccines” (priority 2003, published 2004).

System: SK-Mel-28 human melanoma cells
Experiment: Expression of modified GD3 after incubation with modified precursors (flow cytometry, CE-MS)
Type: cell-based
Conditions: 1 mg/ml precursor concentration; in agreement with flow cytometry
Procedure: SK-Mel-28 human melanoma cells normally expressing GD3 were incubated with modified sialic acid precursors. The modified sialic acid precursors used were N-acylated Mannosamines(“ManNAc”), including: N-propionyl mannosamine (“ManNPr”), N-butyril mannosamine (“ManNBu”), and N-benzoyl mannosamine (“ManNBz”).
The incorporation and metabolism of the surface GD3 antigen were also investigated. […] Modified GD3 on SK-Mel-28 cells in vitro was still found 10 days after removal of precursors from the growth medium, when two populations of antigens, unmodified and modified GD3 were detected by mAb R24 and respective antiserum.
The relative quantity of modified and unmodified GD3 expressed on the SK-Mel-28 was analysed by capillary electrophoresis-mass spectroscopy (“CE-MS”). The glycolipids extracted from cells grown in various concentrations of ManNBu were separated by capillary electrophoresis and negative charged glycolipids were detected. GD3 was the dominant ganglioside found in SK-Mel-28 cells. When ManNBu was added to the medium, the modified GD3 was biosynthesized and expressed.

CCCC(=O)N[C@@H]1C(O)O[C@H](CO)[C@@H](O)[C@@H]1O (stereo partly shown) [ManNBu, N-butyril mannosamine]
Relative expression of modified GD3 by CE-MS: well expressed
